“Also recorded” adds a separate entry of the source. Where two headings read alike, the source gives them in different places.
Experiments:
[1] = tested on: non-NMDA type receptors; settings: Tetrahedron Letters 31 (28), 4049-4052 (1990); Brain Res. 550, 152-156 (1991); cited from earlier work
[2] = tested on: NMDA type receptors; settings: Japanese Patent Laid-Open No. 093563/1991; cited from earlier work
[3] = tested on: monosynaptic reflex in the newborn rat spinal cord preparation; settings: reported value for Baclofen, cited from earlier work
[4] = tested on: newborn rat spinal cord preparation; experiment: Measurement of depolarizing activity, newborn rat spinal cord preparation; assay type: cell-based; settings: relative to L-glutamic acid = 1
[5] = tested on: monosynaptic reflex in the newborn rat spinal cord preparation; experiment: Determination of monosynaptic reflex inhibition activity in the newborn rat spinal cord preparation; set-up: species or system newborn Wister rat; settings: for concentration inhibiting (50%) monosynaptic reflex relative to the IC50 of Baclofen: as multiple of IC50 of Baclofen; for monosynaptic reflex inhibition (in words) / IC50: newborn rat spinal cord preparation; for IC50: read-out: IC50 (50% inhibitory concentration), monosynaptic reflex inhibition
Method: The spinal cord of a newborn Wister rat was taken out, as encircled by the spinal column, under etherization.
A single stimulation was applied to a posterior root via a suction electrode and the anterior root reflection potential of the corresponding anterior root was recorded.
DCG-I and DCG-II at various concentration were added to the perfusion solution and the monosynaptic reflexes thus caused were measured.

[6] = tested on: NMDA receptors; experiment: Depolarization under perfusion with CPP (NMDA receptor agonism); assay type: cell-based, newborn rat; settings: for depolarization on adding CPP: 3×10^-5 M CPP perfused; for NMDA type agonistic activity: electrophysiological assay, newborn rat spinal cord preparation

## N[C@H](C(=O)O)[C@@H]1[C@@H](COCc2ccccc2)[C@@H]1C(=O)O [(2S,1'R,2'R,3'R)-2-(2-carboxy-3-benzyloxymethylcyclopropyl)glycine]
[1]
  non-NMDA type agonist activity: agonists of the non-NMDA type

## COC[C@H]1[C@H](C(=O)O)[C@@H]1[C@H](N)C(=O)O [(2S,1'R,2'R,3'R)-2-(2-carboxy-3-methoxymethylcyclopropyl)glycine]
[1]
  non-NMDA type agonist activity: agonists of the non-NMDA type

## N[C@H](C(=O)O)[C@@H]1C[C@@H]1C(=O)O [(2S,1'R,2'S)-2-(2-carboxycyclopropyl)glycine]
[2]
  NMDA type agonist activity: potent agonist of the NMDA type superior to NMDA

## NCC(CC(=O)O)c1ccc(Cl)cc1 (stereo not drawn) [Baclofen]
[3]; in nM
  IC50: ~500 nM
[3]
  IC50: ~500 nM

## N[C@H](C(=O)O)C1[C@@H](C(=O)O)[C@@H]1C(=O)O (stereo partly drawn) [DCG-I, (2S,1'R,2'R,3'R)-2-(2,3-dicarboxycyclopropyl)glycine]
[4]
  Activity ratio: 33
[5]
  concentration inhibiting (50%) monosynaptic reflex relative to the IC50 of Baclofen: about 1/20
  monosynaptic reflex inhibition (in words): selectively inhibit monosynaptic reflex even at a low concentration
  IC50: 60 nM
[6]
  depolarization on adding CPP: completely inhibited
  NMDA type agonistic activity: agonists for NMDA receptors; also recorded: agonist of the NMDA type

## N[C@H](C(=O)O)C1[C@H](C(=O)O)[C@H]1C(=O)O (stereo partly drawn) [DCG-II, (2S,1'S,2'S,3'S)-2-(2,3-dicarboxycyclopropyl)glycine]
[4]
  Activity ratio: 0.5
[5]
  concentration inhibiting (50%) monosynaptic reflex relative to the IC50 of Baclofen: twice
  monosynaptic reflex inhibition (in words): selectively inhibit monosynaptic reflex even at a low concentration
  IC50: 1000 nM
[6]
  depolarization on adding CPP: completely inhibited
  NMDA type agonistic activity: agonists for NMDA receptors; also recorded: only a week agonistic activity of the NMDA type

## N[C@@H](CCC(=O)O)C(=O)O [L-glutamic acid, reference compound]
[4]
  Activity ratio: 1

From patent US5334757A, “2-(2,3-dicarboxycyclopropyl) glycine and method for producing the same” (Suntory Limited, priority 1991, dated 1994)
